Source: patent US11376337B2, “Expression of neuropeptides” (California Institute of Technology, priority 2017, dated 2022)
“Also recorded” adds a separate entry of the source.

Key:
[1] = literature statement; cited from earlier work
[2] = molecular target: T1, Nk3R (Homo sapiens, UniProt P29371); settings: trials for schizophrenia, bipolar and panic disorder; cited from earlier work
T1 sequence (P29371 1-465): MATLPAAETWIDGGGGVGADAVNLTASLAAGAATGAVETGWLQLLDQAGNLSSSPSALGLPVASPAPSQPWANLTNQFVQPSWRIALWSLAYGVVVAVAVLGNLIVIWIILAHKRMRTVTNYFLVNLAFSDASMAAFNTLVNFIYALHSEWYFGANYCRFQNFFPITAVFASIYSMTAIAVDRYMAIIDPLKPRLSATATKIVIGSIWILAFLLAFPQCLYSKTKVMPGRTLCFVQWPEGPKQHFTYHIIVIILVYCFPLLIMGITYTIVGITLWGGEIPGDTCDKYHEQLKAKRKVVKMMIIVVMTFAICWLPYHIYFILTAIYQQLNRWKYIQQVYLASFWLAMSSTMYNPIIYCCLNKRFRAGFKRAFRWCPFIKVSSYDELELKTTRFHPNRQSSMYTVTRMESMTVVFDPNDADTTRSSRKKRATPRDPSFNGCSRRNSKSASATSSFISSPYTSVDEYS

[3] = molecular target: T2, Nk3R (Mus musculus, UniProt P47937); assay: Social interaction assay, osanetant; settings: SIS mice; acute systemic osanetant
T2 sequence (P47937 1-452): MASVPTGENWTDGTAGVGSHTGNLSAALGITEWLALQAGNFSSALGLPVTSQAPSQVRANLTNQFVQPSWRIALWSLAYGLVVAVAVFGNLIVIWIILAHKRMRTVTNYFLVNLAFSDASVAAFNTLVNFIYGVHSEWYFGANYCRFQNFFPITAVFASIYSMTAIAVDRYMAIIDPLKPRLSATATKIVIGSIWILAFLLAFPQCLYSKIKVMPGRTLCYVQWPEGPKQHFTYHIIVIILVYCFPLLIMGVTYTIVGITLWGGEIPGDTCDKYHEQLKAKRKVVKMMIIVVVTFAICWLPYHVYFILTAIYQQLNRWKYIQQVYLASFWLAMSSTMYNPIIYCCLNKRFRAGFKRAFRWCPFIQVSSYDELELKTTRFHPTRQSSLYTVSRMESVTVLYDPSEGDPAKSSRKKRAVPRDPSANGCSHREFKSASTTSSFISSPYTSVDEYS

[4] = molecular target: T2, Nk3R; assay: Acoustic startle response, osanetant; settings: SIS mice; acute systemic osanetant
[5] = molecular target: T2, Nk3R; assay: Looming disk assay (freezing), osanetant; settings: for acute (and thereby persistent) freezing to innate threatening stimulus (looming disk): osanetant injection into CeA
[6] = molecular target: T2, Nk3R; assay: Resident intruder assay (aggression), osanetant; settings: for SIS-induced aggression: osanetant microinfusion into DMH
[7] = molecular target: T2, Nk3R; assay: Tail rattles during looming disk assay, osanetant; settings: SIS mice; acute systemic osanetant
[8] = molecular target: T2, Nk3R; assay: Tone fear conditioning test (freezing), osanetant; type: in vivo, mice; set-up: endogenous in cells; host or cells: living mice (wild-type C57Bl6/N males, Charles River); systemic i.p. dosing or microinfusion into dBNSTa, DMH, CeA; settings: for acute (and thereby persistent) freezing to conditioned threatening stimulus (tone): osanetant injection into CeA; for SIS-induced persistent freezing to conditioned tone: osanetant microinfusion into dBNSTa, 375 ng per site, 20 min before test
[9] = molecular target: T2, Nk3R; assay: Shock reactivity (footshock), osanetant; type: in vivo, mice; set-up: endogenous in cells; host or cells: living mice (wild-type C57Bl6/N males, Charles River); systemic i.p. dosing or microinfusion into dBNSTa, DMH, CeA
[10] = molecular target: T2, Nk3R; assay: Return to housing with pre-isolation cagemates after SIS, osanetant; type: in vivo, mice; set-up: endogenous in cells; host or cells: living mice (wild-type C57Bl6/N males, Charles River); systemic i.p. dosing or microinfusion into dBNSTa, DMH, CeA; settings: osanetant during SIS; data not shown
[11] = SIS mice, osanetant 5 mg/kg i.p. 20 min prior to assay
[12] = SIS mice, osanetant microinfusion into DMH
[13] = osanetant 5 mg/kg i.p. 20 min prior to assay, during stimulus
[14] = osanetant daily during two-week SIS, tested off-drug
[15] = SIS mice, osanetant injection into CeA
[16] = SIS mice, osanetant microinfusion into dBNSTa

SIS-induced decreased social interaction (time in social zone) [3]: blocked; also recorded: attenuated | SIS-enhanced responding in acoustic startle assay [4]: blocked; also recorded: attenuated | SIS-induced persistent (post) freezing to looming disk [5, 11]: blocked; also recorded: attenuated | acute (and thereby persistent) freezing to innate threatening stimulus (looming disk) ([5]; SIS mice): reduced | acute (and thereby persistent) freezing to innate threatening stimulus (looming disk) ([5]; SIS mice, listed as Osanetant): selectively blocked | persistent responses to looming stimulus [5, 12]: had no effect | SIS-induced persistent freezing to looming disk ([5]; SIS mice, osanetant microinfusion into dBNSTa, 375 ng per site, 20 min before test): selectively inhibited | SIS-induced persistent freezing to looming disk ([5]; SIS mice, osanetant microinfusion into dBNSTa, 375 ng per site, 20 min before test, listed as Osanetant): selectively blocked | freezing during presentation of looming disk [5, 13]: no significant differences | persistent freezing to looming disk [5, 14]: prevented | aggression promoted by sexual experience ([6]; 2 weeks co-habitation with a female, no isolation, systemic osanetant): had no effect | SIS-enhanced aggression [6, 11]: blocked; also recorded: strongly reduced | aggression [6, 15]: unaffected | SIS-induced aggression ([6]; SIS mice): abolished | SIS-induced aggression ([6]; SIS mice, listed as Osanetant): selectively blocked | aggression [6, 16]: no effect | SIS-enhanced aggression [6, 14]: prevented | SIS-induced increased tail rattling [7]: blocked; also recorded: attenuated | SIS-induced persistent (post) freezing to fear-conditioned tone [8, 11]: blocked; also recorded: attenuated | acute (and thereby persistent) freezing to conditioned threatening stimulus (tone) ([8]; SIS mice): reduced | acute (and thereby persistent) freezing to conditioned threatening stimulus (tone) ([8]; SIS mice, listed as Osanetant): selectively blocked | persistent responses to conditioned tone [8, 12]: had no effect | SIS-induced persistent freezing to conditioned tone ([8]; SIS mice): selectively inhibited | SIS-induced persistent freezing to conditioned tone ([8]; SIS mice, listed as Osanetant): selectively blocked | freezing during presentation of fear-conditioned tone [8, 13]: no significant differences | persistent freezing to fear conditioned tone [8, 14]: prevented | SIS-induced increased shock reactivity [9, 11]: blocked | reactivity to footshock (SIS-enhanced) [9, 15]: reduced; also recorded: blocked | responses to footshock [9, 12]: had no effect | shock reactivity [9, 16]: no effect | fighting after return to housing with pre-isolation cagemates [10]: without any subsequent fighting observed
SMILES: CC(=O)N(C)C1(c2ccccc2)CCN(CCC[C@]2(c3ccc(Cl)c(Cl)c3)CCCN(C(=O)c3ccccc3)C2)CC1 [osanetant]
crossing of the blood-brain barrier [1]: crosses the blood-brain barrier | efficacy in clinical trials [2]: lack of efficacy | tolerability in clinical trials [2]: well tolerated | SIS-induced persistent freezing to looming disk ([5]; SIS mice, osanetant microinfusion into ACC): failed to yield significant effects; also recorded: No significant effects | SIS-induced persistent freezing to looming disk ([5]; SIS mice, osanetant microinfusion into striatum): failed to yield significant effects; also recorded: No significant effects | SIS-induced increase in shock reactivity [9, 14]: a trend to protection; also recorded: reduced, but not significantly
